Earlier results, collected in publication PMC11261124 (Poultry Science, 2024).

What was measured:
HSV-2 = conditions: read-out: IC50 against HSV-2

Compound | IC50 (HSV-2) | anti-HIV activity IC50 (HIV)
COc1ccc2c(c1)[nH]c1c(C)nccc12 [Harmine] | 1470 nM | –
COc1cn2c3ccccc3c3ccnc(c1=O)c32 [Drymaritin] | – | 0.699 µg/mL
